Consider 27 compounds from patent publication US8846675B2, “N-linked heterocyclic receptor agonists for the treatment of diabetes and metabolic disorders” (Cymabay Therapeutics, Inc., priority 2007, dated 2014).

This test concerns the target T1, IC-GPCR2 (Homo sapiens, UniProt Q8TDV5).
T1 construct: expressed in transfected cells
T1 sequence (Q8TDV5 1-335 S309L): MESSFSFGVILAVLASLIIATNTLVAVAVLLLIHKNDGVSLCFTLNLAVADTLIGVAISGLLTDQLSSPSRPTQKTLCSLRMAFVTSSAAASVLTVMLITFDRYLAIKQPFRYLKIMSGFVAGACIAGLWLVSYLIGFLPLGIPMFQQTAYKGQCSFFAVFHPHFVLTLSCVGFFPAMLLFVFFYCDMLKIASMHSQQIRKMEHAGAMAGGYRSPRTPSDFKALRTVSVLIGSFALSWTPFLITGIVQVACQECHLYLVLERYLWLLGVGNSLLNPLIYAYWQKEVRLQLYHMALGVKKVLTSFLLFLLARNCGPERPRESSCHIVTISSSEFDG
The test can be described thus: Stimulation of cAMP in CHO cell line stably expressing IC-GPCR2 (HTRF cAMP dynamic kit). The class given is cell-based. The settings on record: 3 μM compound, relative to maximal activity of 5-Ethyl-2-{4-[4-(4-tetrazol-1-yl-phenoxymethyl)-thiazol-2-yl]-piperidin-1-yl}-pyrimidine (=100%), IC-GPCR2 stably expressing CHO cells, 30 minutes. Put shortly:
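CHO cells stably expressing IC-GPCR2, with parental CHO as counter-screen, were exposed to compound (0.00003–10 μM) for 30 min in Ham's F12. Intracellular cAMP read by HTRF competitive immunoassay (665/620 nm ratio). Activity at 3 μM expressed as % of maximal signal from a reference agonist.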

As to `CCc1cnc(N2CCC(n3cc(COc4ccc(S(C)(=O)=O)cc4F)c(C(F)(F)F)n3)CC2)nc1` [Example 67, 5-Ethyl-2-(4-(4-((2-fluoro-4-(methylsulfonyl)phenoxy)methyl)-3-(trifluoromethyl)-1H-pyrazol-1-yl)piperidin-1-yl)pyrimidine], the “% activity at 3 μM” value is listed as 57.87%.
For `CC(C)(C)OC(=O)N1CC[C@@H](n2ncc(COc3ccc(-n4cnnn4)cc3F)n2)[C@H](F)C1` (relative stereo) [Example 49, (trans)-tert-Butyl 3-fluoro-4-(4-((2-fluoro-4-(1H-tetrazol-1-yl)phenoxy)methyl)-2H-1,2,3-triazol-2-yl)piperidine-1-carboxylate], the “% activity at 3 μM” value came out at 78.48%.
Same read-out and setting: the result for `CC(C)(C)OC(=O)N1CCC(n2cc(COc3ccc(S(C)(=O)=O)cc3)nn2)CC1` [Example 21, 4-[4-(4-Methanesulfonyl-phenoxymethyl)[1,2,3]triazol-1-yl]-piperidine-1-carboxylic acid tert-butyl ester] reads 63.66%; that for `CC(C)(C)OC(=O)N1CCC(n2cnc(COc3ccc(S(C)(=O)=O)cc3F)n2)CC1` [Example 1, 4-[3-(2-Fluoro-4-methanesulfonyl-phenoxymethyl)-[1,2,4]triazol-1-yl]-piperidine-1-carboxylic acid tert-butyl ester], 64.46%.
Regarding `CC(C)S(=O)(=O)N1CCC(n2ncc(COc3ccc(-n4cnnn4)nc3)n2)CC1` [Example 45, 5-((2-(1-(Isopropylsulfonyl)piperidin-4-yl)-2H-1,2,3-triazol-4-yl)methoxy)-2-(1H-tetrazol-1-yl)pyridine], the “% activity at 3 μM” value is listed as 67.58%.
On to `CCCCCc1cnc(N2CCC(n3ncc(COc4ccc(-n5cnnn5)nc4)n3)CC2)nc1` [Example 78, 2-(4-(4-((6-(1H-tetrazol-1-yl)pyridin-3-yloxy)methyl)-2H-1,2,3-triazol-2-yl)piperidin-1-yl)-5-pentylpyrimidine], for which the “% activity at 3 μM” value was determined as 57.13%.
Same read-out and setting: the result for `O=C(c1cccnc1)N1CCC(n2ncc(COc3ccc(-n4cnnn4)cc3F)n2)CC1` [Example 112, (4-(4-((2-Fluoro-4-(1H-tetrazol-1-yl)phenoxy)methyl)-2H-1,2,3-triazol-2-yl)piperidin-1-yl)(pyridin-3-yl)methanone] reads 42.30%; that for `CC(C)OC(=O)N1CCC(n2ncc(COc3ccc(-n4cnnn4)nc3)n2)CC1` [Example 35, Isopropyl 4-(4-((6-(1H-tetrazol-1-yl)pyridin-3-yloxy)methyl)-2H-1,2,3-triazol-2-yl)piperidine-1-carboxylate], 72.14%.
Take `O=C(OCc1ccccc1)N1CCC(n2ncc(COc3ccc(-n4cnnn4)cc3F)n2)CC1` [Example 102, Benzyl 4-(4-((2-fluoro-4-(1H-tetrazol-1-yl)phenoxy)methyl)-2H-1,2,3-triazol-2-yl)piperidine-1-carboxylate]: the “% activity at 3 μM” value is recorded as 38.98%.
In the case of `CC(C)(C)OC(=O)N1CCC(n2cc(COc3ccc(-n4cnnn4)cc3)cn2)CC1` [Example 8, 4-[4-(4-Tetrazol-1-yl-phenoxymethyl)-pyrazol-1-yl]-piperidine-1-carboxylic acid tert-butyl ester], the “% activity at 3 μM” value is recorded as 77.16%.
Regarding `Cc1cc(-n2cnnn2)ccc1OCc1cnn(C2CCN(c3ncc(Cl)cn3)CC2)n1` [Example 89, 5-chloro-2-(4-(4-((2-Methyl-4-(1H-tetrazol-1-yl)phenoxy)methyl)-2H-1,2,3-triazol-2-yl)piperidin-1-yl)pyrimidine], the “% activity at 3 μM” value came to 48.60%.
In the case of `CC(C)(C)OC(=O)N1C2CCC1CC(n1ncc(COc3ccc(-n4cnnn4)nc3)n1)C2` (stereo not drawn) [Example 73, exo-tert-Butyl 3-(4-((6-(1H-tetrazol-1-yl)pyridin-3-yloxy)methyl)-2H-1,2,3-triazol-2-yl)-8-azabicyclo[3.2.1]octane-8-carboxylate], where the note is “3 µM”, the “% activity at 3 μM” value stood at 84.07%.
Take `FC(F)(F)c1cnc(N2CCC(n3ncc(COCc4ccccc4)n3)CC2)nc1` [Example 100, 2-[4-(4-benzyloxymethyl-[1,2,3]triazol-2-yl)-piperidin-1-yl]-5-trifluoromethyl-pyrimidine]: the “% activity at 3 μM” value was 10.69%.
Same read-out and setting: then `Clc1cnc(N2CCC(n3ncc(COc4ccc(-n5ccnc5)cc4)n3)CC2)nc1` [Example 94, 2-(4-(4-((4-(1H-Imidazol-1-yl)phenoxy)methyl)-2H-1,2,3-triazol-2-yl)piperidin-1-yl)-5-chloropyrimidine], with 49.73%; and `CC(C)OC(=O)N1CCC(n2ncc(COc3ccc(S(C)(=O)=O)cc3F)n2)CC1` [Example 36, Isopropyl 4-(4-((2-fluoro-4-(methylsulfonyl)phenoxy)methyl)-2H-1,2,3-triazol-2-yl)piperidine-1-carboxylate], with 70.06%; and `O=S(=O)(c1c[nH]cn1)N1CCC(n2ncc(COc3ccc(-n4cnnn4)nc3)n2)CC1` [Example 40, 5-((2-(1-(1H-Imidazol-4-ylsulfonyl)piperidin-4-yl)-2H-1,2,3-triazol-4-yl)methoxy)-2-(1H-tetrazol-1-yl)pyridine], with 7.10%.
The same measure, in the same setting: then `CC(C)OC(=O)N1CCC(n2ncc(COc3ccc(-n4cnnn4)cc3F)n2)CC1` [Example 37, Isopropyl 4-(4-((2-fluoro-4-(1H-tetrazol-1-yl)phenoxy)methyl)-2H-1,2,3-triazol-2-yl)piperidine-1-carboxylate], with 62.88%.
As for `Fc1cnc(N2C3CCC2CC(n2ncc(COc4ccc(-n5cnnn5)nc4)n2)C3)nc1` (stereo not drawn) [Example 74, endo-3-(4-((6-(1H-tetrazol-1-yl)pyridin-3-yloxy)methyl)-2H-1,2,3-triazol-2-yl)-8-(5-fluoropyrimidin-2-yl)-8-azabicyclo[3.2.1]octane], the “% activity at 3 μM” value (3 µM) is 61.88%.
For the compound `CC(C)(C)OC(=O)N1CCC(CC(=O)N2CCC(n3ncc(COc4ccc(-n5cnnn5)nc4)n3)CC2)CC1` [Example 50, tert-Butyl 4-(2-(4-(-((6-(1H-tetrazol-1-yl)pyridine-3-yloxy)methyl)-2H-1,2,3-triazol-2-yl)piperidin-1-yl)-2-oxoethyl)piperidine-1-carboxylate], the “% activity at 3 μM” value turned out to be 49.51%.
On the same count and under the same terms, the result for `CS(=O)(=O)c1ccc(OCc2cnn(C3CCN(c4ncc(C(F)(F)F)cn4)CC3)n2)c(F)c1` [Example 14, 2-{4-[4-(2-Fluoro-4-methanesulfonyl-phenoxymethyl)-[1,2,3]triazol-2-yl]-piperidin-1-yl}-5-trifluoromethyl-pyrimidine] reads 74.80%.
Take `Fc1cnc(N2C3CCC2CC(n2ncc(COc4ccc(-n5cnnn5)nc4)n2)C3)nc1` (stereo not drawn) [Example 75, exo-3-(4-((6-(1H-Tetrazol-1-yl)pyridin-3-yloxy)methyl)-2H-1,2,3-triazol-2-yl)-8-(5-fluoropyrimidin-2-yl)-8-azabicyclo[3.2.1]octane]: the “% activity at 3 μM” value (3 µM) was 47.94%.
Take `CC(C)(C)OC(=O)N[C@H](CC(=O)N1CCC(n2ncc(COc3ccc(-n4cnnn4)nc3)n2)CC1)Cc1cc(F)c(F)cc1F` [Example 56, (S)-tert-Butyl 4-(4-(4-((6-(1H-tetrazol-1-yl)pyridin-3-yloxy)methyl)-2H-1,2,3-triazol-2-yl)piperidin-1-yl)-4-oxo-1-(2,4,5-trifluorophenyl)butan-2-ylcarbamate]: the “% activity at 3 μM” value was found to be 7.31%.
Same read-out and setting: then `CCc1cnc(N2CCC(n3ncc(COc4ccc(-n5cnnn5)nc4)n3)CC2)nc1` [Example 32, 2-(4-(4-((6-(1H-tetrazol-1-yl)pyridin-3-yloxy)methyl)-2H-1,2,3-triazol-2-yl)piperidin-1-yl)-5-ethylpyrimidine], with 75.55%; and `CCOC(=O)c1cnc(N2CCC(n3ncc(COc4ccc(-n5cnnn5)cc4F)n3)CC2)nc1` [Example 106, Ethyl 2-(4-(4-((2-fluoro-4-(1H-tetrazol-1-yl)phenoxy)methyl)-2H-1,2,3-triazol-2-yl)piperidin-1-yl)pyrimidine-5-carboxylate], with 11.46%; and `CC1CC(n2ncc(COc3ccc(-n4cnnn4)cc3F)n2)CCN1c1ncc(Cl)cn1` (stereo not drawn) [Example 69, 5-Chloro-2-(4-(4-((2-fluoro-4-(1H-tetrazol-1-yl)phenoxy)methyl)-2H-1,2,3-triazol-2-yl)-2-methylpiperidin-1-yl)pyrimidine], with 55.22%.
On the same count and under the same terms, then `CS(=O)(=O)c1ccc(OCc2nnn(C3CCN(c4ncc(Cl)cn4)CC3)n2)c(F)c1` [Example 17, 5-Chloro-2-{4-[5-(2-fluoro-4-methanesulfonyl-phenoxymethyl)-tetrazol-2-yl]-piperidin-1-yl}-pyrimidine], with 68.23%; and `CC1CN(c2ncc(C(F)(F)F)cn2)CCC1n1ncc(COc2ccc(-n3cnnn3)nc2)n1` (stereo not drawn) [Example 84, 2-(4-(4-((6-(1H-Tetrazol-1-yl)pyridin-3-yloxy)methyl)-2H-1,2,3-triazol-2-yl)-3-methylpiperidin-1-yl)-5-(trifluoromethyl)pyrimidine], with 78.05%.
